The source of these data is publication doi:10.1101/2023.03.24.534094v2 (biorxiv, 2023).

Like-named read-outs stand apart in the source and are kept apart here.

Among the targets are RSK1b (Homo sapiens, UniProt Q15418); p38a (Homo sapiens, UniProt Q16539); BRD4 (Homo sapiens, UniProt O60885).
What all share (assay): biochemical
The next assay addresses T1, CASK (Homo sapiens, UniProt O14936).
T1 sequence (O14936 1-926): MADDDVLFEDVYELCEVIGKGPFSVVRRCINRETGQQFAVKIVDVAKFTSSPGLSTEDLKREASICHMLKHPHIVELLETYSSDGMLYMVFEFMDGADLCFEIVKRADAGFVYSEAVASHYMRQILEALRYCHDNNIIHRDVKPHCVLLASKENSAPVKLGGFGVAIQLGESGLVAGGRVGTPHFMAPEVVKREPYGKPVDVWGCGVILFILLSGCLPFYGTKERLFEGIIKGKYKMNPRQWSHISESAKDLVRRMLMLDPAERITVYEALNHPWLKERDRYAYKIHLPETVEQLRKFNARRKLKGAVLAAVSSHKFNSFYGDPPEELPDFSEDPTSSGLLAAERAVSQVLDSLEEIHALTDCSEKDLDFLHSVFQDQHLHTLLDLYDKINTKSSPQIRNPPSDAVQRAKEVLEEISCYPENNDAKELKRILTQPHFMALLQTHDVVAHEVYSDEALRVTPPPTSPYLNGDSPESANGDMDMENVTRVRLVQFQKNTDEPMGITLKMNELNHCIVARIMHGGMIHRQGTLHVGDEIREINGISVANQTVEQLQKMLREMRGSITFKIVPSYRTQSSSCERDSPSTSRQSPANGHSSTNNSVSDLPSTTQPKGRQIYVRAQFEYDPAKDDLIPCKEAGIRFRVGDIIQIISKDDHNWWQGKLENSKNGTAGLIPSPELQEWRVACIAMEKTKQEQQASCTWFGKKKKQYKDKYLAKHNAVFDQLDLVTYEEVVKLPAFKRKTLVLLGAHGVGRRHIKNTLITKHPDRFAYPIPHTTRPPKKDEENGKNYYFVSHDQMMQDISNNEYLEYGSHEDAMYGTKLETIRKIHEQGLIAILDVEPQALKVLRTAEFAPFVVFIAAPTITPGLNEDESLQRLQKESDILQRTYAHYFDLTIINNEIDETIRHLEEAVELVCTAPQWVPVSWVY

The target in a further assay is T2, BMPR2 (Homo sapiens, UniProt Q13873).
T2 sequence (Q13873 1-1038): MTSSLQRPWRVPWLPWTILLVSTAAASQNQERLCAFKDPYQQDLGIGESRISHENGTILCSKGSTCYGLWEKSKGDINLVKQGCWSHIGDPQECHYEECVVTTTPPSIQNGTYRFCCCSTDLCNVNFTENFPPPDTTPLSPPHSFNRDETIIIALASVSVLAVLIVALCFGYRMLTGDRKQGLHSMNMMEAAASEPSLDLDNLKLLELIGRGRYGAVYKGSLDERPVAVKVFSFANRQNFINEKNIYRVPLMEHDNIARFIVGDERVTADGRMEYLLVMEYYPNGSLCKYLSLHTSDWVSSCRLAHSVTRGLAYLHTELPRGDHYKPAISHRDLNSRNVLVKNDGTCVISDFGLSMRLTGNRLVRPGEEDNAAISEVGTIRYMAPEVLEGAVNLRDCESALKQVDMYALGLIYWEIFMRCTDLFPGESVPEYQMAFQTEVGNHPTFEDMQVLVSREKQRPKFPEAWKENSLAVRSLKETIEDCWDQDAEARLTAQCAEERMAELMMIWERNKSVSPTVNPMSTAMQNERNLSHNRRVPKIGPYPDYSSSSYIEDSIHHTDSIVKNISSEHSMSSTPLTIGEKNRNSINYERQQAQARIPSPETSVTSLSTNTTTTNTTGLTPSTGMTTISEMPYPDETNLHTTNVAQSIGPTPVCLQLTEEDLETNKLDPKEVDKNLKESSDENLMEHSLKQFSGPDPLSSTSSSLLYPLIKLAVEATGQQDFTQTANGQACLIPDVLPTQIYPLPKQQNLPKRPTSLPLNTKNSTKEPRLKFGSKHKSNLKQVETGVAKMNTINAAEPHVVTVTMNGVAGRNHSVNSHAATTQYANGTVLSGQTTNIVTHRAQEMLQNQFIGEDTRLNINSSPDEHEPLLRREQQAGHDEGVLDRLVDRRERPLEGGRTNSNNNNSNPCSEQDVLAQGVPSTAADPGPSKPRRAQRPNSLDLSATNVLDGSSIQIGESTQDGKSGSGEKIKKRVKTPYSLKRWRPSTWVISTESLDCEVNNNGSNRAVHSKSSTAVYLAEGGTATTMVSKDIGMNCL

In a further assay the target is T3, DCAMKL1 (Homo sapiens, UniProt O15075).
T3 sequence (O15075 1-740): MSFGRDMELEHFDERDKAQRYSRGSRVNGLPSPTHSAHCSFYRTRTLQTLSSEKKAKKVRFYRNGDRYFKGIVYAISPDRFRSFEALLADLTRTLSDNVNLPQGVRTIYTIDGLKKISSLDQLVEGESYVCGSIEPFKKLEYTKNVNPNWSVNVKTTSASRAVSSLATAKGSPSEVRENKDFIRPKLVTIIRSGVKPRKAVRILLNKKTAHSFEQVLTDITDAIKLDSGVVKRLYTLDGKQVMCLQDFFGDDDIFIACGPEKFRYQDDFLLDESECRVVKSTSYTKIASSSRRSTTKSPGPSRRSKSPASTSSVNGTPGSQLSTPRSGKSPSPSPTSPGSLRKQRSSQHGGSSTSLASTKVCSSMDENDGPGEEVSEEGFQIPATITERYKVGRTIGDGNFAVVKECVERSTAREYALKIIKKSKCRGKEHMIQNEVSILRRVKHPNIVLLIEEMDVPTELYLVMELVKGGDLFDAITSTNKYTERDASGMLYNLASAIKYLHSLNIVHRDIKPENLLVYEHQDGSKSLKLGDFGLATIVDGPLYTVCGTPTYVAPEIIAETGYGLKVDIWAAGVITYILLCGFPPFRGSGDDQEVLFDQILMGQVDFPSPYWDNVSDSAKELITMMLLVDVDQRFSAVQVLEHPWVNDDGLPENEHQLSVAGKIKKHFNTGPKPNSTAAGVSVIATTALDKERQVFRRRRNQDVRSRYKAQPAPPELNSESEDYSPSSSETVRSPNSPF

Chain of RSK1b (Q15418 whole entry): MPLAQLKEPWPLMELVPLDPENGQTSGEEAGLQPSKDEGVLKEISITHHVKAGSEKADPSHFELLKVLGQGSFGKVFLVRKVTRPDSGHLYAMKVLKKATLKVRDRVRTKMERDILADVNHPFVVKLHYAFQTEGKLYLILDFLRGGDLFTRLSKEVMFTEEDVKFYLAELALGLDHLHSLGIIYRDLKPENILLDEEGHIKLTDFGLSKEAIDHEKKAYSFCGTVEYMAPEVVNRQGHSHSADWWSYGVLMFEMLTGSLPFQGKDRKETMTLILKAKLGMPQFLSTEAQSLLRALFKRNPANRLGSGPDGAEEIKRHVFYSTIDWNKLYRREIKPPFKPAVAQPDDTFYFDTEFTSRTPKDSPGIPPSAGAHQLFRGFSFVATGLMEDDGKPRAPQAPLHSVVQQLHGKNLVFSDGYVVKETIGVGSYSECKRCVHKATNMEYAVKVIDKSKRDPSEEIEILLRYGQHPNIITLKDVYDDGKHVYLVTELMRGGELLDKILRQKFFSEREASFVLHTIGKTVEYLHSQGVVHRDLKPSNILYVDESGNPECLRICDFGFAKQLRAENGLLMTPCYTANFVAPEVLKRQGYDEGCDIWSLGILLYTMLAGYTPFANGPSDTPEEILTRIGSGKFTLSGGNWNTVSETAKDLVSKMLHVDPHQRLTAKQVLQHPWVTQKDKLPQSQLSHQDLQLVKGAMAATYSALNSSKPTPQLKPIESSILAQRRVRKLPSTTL
Chain of p38a (Q16539 whole entry): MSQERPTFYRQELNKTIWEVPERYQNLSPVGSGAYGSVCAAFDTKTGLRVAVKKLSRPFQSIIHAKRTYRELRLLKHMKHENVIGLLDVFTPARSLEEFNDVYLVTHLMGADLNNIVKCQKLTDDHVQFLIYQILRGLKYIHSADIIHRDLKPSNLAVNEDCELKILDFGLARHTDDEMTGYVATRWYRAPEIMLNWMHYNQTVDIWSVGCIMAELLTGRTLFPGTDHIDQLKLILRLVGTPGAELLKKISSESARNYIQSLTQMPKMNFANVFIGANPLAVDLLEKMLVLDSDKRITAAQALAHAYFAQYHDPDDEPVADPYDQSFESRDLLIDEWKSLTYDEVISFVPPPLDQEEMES

For the molecule `CNc1ncc2cc(-c3cc(Cl)ccc3Cl)c(=O)n(CCCCN)c2n1` [compound 8, 8-(4-Aminobutyl)-6-(2,5-dichlorophenyl)-2-(methylamino)pyrido[2,3-d]pyrimidin-7(8H)-one], the ΔTm at 10 µM on CASK (read-out: dTm 8) was -0.2 °C; on BMPR2 (read-out: dTm 8), 0.2 °C; on RSK1b (read-out: dTm 8), 6.9 °C; on p38a (read-out: dTm 8), 6 °C; on BRD4 (read-out: dTm 8), 1.3 °C; at DCAMKL1 (read-out: dTm 8), 1.2 °C.
On to `CNc1ncc2cc(-c3cc(Cl)ccc3Br)c(=O)n(CCCCN)c2n1` [compound 10, 8-(4-Aminobutyl)-6-(2-bromo-5-chlorophenyl)-2-(methylamino)pyrido[2,3-d]pyrimidin-7(8H)-one], for which the ΔTm at 10 µM at CASK (read-out: dTm 10) amounted to 0 °C; at BMPR2 (read-out: dTm 10) it was 0 °C; on RSK1b (read-out: dTm 10), 6.2 °C; on p38a (read-out: dTm 10), 6.1 °C; on BRD4 (read-out: dTm 10), 1.2 °C; at DCAMKL1 (read-out: dTm 10), 0.9 °C.
`CNc1ncc2cc(-c3cc(Br)ccc3Br)c(=O)n(CCCCN)c2n1` [compound 11, 8-(4-Aminobutyl)-6-(2,5-dibromophenyl)-2-(methylamino)pyrido[2,3-d]pyrimidin-7(8H)-one]: the ΔTm at 10 µM at CASK (read-out: dTm 11) is -0.3 °C; at BMPR2 (read-out: dTm 11), 0 °C; at RSK1b (read-out: dTm 11), 5.8 °C; at p38a (read-out: dTm 11) it was 6.4 °C; on BRD4 (read-out: dTm 11) it was 1 °C; on DCAMKL1 (read-out: dTm 11), 1.1 °C.
Turning to `CNc1ncc2cc(-c3cc(C(F)(F)F)ccc3Cl)c(=O)n(CCCCN)c2n1` [compound 9, 8-(4-Aminobutyl)-6-(2-chloro-5-(trifluoromethyl)phenyl)-2-(methylamino)pyrido[2,3-d]pyrimidin-7(8H)-one], the ΔTm at 10 µM was -0.1 °C on CASK (read-out: dTm 9); 0.1 °C at BMPR2 (read-out: dTm 9); 4.5 °C at RSK1b (read-out: dTm 9); 4.2 °C on p38a (read-out: dTm 9); 0.7 °C at BRD4 (read-out: dTm 9); 0.5 °C on DCAMKL1 (read-out: dTm 9).
As to `CNc1ncc2cc(-c3cc(F)c(-c4cccc(C)n4)cc3F)c(=O)n(CCCCN)c2n1` [compound 12, 8-(4-Aminobutyl)-6-(2,5-difluoro-4-(6-methylpyridin-2-yl)phenyl)-2-(methylamino)pyrido[2,3-d]pyrimidin-7(8H)-one], the ΔTm at 10 µM on CASK (read-out: dTm 12) was -0.2 °C; on BMPR2 (read-out: dTm 12), -0.2 °C; on RSK1b (read-out: dTm 12), -0.2 °C; on p38a (read-out: dTm 12) it was 0.4 °C; on BRD4 (read-out: dTm 12), -2 °C; at DCAMKL1 (read-out: dTm 12), -1.6 °C.
